Here are results for 27 molecules from patent US20260297070A1, “CYCLIC [COMPOUND LEFT OUT] WRN INHIBITORS” (Nimbus Wadjet, Inc., priority 2023, published 2026).

The test has as its target T1, human Werner helicase (WRN-BV08, Uniprot Q14191, amino acids 517-1235 with L1074F point mutation) (Homo sapiens, UniProt Q14191, L1074F).
T1 construct: Uniprot Q14191, amino acids 517-1235 with L1074F point mutation; TEV-cleavable 8×His (C, cleaved yes); made in house; host or cells: Sf9 insect cells (baculovirus)
Nature of the test: WRN (BV08) ADP-Glo Assay. The class given is biochemical. As to conditions: 0.15 nM WRN, 5 μM ATP, 0.1 nM DNA duplex, 15 min preincubation, 60 min at 25° C., pH 7.5, 1% DMSO; read-out: ADP-Glo_hWRN_IC50. In short, it runs like this:
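Untagged WRN (Sf9-expressed, TEV-cleaved) at 0.15 nM was preincubated 15 min at 25 °C with compound, then reacted 60 min at 25 °C with 5 μM ATP and 0.1 nM DNA duplex in Bicine pH 7.5, 1 mM MgCl2. ADP-Glo luminescence gave % inhibition; IC50 by four-parameter fit.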
In general terms: In ADP-Glo the light output rises with the ADP produced.

T1 sequence (Q14191 with tags, fused parts or gaps L1074F limits assumed): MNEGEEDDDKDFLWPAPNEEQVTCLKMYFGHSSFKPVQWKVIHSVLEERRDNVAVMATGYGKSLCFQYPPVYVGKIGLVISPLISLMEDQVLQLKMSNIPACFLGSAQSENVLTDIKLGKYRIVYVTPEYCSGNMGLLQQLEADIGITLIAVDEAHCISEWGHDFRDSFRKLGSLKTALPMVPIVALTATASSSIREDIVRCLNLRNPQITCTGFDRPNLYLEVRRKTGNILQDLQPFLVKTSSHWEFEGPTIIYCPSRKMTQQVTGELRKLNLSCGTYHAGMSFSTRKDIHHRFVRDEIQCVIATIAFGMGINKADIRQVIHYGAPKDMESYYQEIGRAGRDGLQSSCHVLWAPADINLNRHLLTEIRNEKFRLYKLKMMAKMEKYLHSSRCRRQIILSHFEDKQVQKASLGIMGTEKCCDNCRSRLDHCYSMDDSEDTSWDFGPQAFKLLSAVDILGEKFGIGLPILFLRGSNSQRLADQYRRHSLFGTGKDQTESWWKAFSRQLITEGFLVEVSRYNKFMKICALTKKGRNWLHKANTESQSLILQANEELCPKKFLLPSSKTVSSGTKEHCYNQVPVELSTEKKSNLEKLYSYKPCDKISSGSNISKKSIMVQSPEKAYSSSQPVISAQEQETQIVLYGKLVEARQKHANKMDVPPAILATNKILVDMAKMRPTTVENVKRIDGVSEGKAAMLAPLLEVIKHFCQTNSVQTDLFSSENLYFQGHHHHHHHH

On to `COc1cc(CN(C(=O)C(O/C=C/S(C)(=O)=O)c2ccc(-c3ccc(F)c(F)c3)cc2F)[C@@H]2C=CS(=O)(=O)C2)ccn1` (single isomer, unassigned) [I-804, (2R*)-N-[(3R)-1,1-dioxo-2,3-dihydro-1lambda6-thiophen-3-yl]-2-{[(1E)-2-methanesulfonylethenyl]oxy}-N-[(2-methoxypyridin-4-yl)methyl]-2-{3,3′,4′-trifluoro-[1,1′-biphenyl]-4-yl}acetamide], for which the IC50 was less than 0.5 µM.
The result for `Cc1cnn(CC(=O)N(Cc2ccncc2)C2C=CS(=O)(=O)C2)c1` (stereo not drawn) [I-436, N-(1,1-dioxo-2,3-dihydro-1lambda6-thiophen-3-yl)-2-(4-methyl-1H-pyrazol-1-yl)-N-[(pyridin-4-yl)methyl]acetamide] reads greater than 50 µM; that for `O=C(Cn1cc(-c2ccc(F)c(F)c2)cn1)N(Cc1nc(C2(F)CC2)cs1)C1C=CS(=O)(=O)C1` (stereo not drawn) [I-726, 2-[4-(3,4-difluorophenyl)-1H-pyrazol-1-yl]-N-(1,1-dioxo-2,3-dihydro-1lambda6-thiophen-3-yl)-N-{[4-(1-fluorocyclopropyl)-1,3-thiazol-2-yl]methyl}acetamide], less than 0.5 µM; that for `CC(C)(O)c1cc(CN(C(=O)Cc2cc(-c3ccc(F)c(F)c3)sn2)[C@@H]2C=CS(=O)(=O)C2)ccn1` [I-825, 2-[5-(3,4-difluorophenyl)-1,2-thiazol-3-yl]-N-[(3R)-1,1-dioxo-2,3-dihydro-1lambda6-thiophen-3-yl]-N-{[2-(2-hydroxypropan-2-yl)pyridin-4-yl]methyl}acetamide], less than 0.5 µM.
As to `O=C(Cc1ccc(C2CCCC2)cc1)N(Cc1ccncc1)C1C=CS(=O)(=O)C1` (stereo not drawn) [I-217, 2-(4-cyclopentylphenyl)-N-(1,1-dioxo-2,3-dihydro-1lambda6-thiophen-3-yl)-N-[(pyridin-4-yl)methyl]acetamide], the IC50 was 0.5 to 5 µM.
The result for `O=C(Cc1ccc(S(F)(F)(F)(F)F)cc1)N(CC1CC1)C1C=CS(=O)(=O)C1` (stereo not drawn) [I-608, N-(cyclopropylmethyl)-N-(1,1-dioxo-2,3-dihydro-1lambda6-thiophen-3-yl)-2-[4-(pentafluoro-lambda6-sulfanyl)phenyl]acetamide] reads 10 to 50 µM.
In the case of `O=C(Cc1ccc(S(F)(F)(F)(F)F)cc1)N(Cc1cnoc1)C1C=CS(=O)(=O)C1` (stereo not drawn) [I-648, N-(1,1-dioxo-2,3-dihydro-1lambda6-thiophen-3-yl)-N-[(1,2-oxazol-4-yl)methyl]-2-[4-(pentafluoro-lambda6-sulfanyl)phenyl]acetamide], the IC50 was in the range of 5 to 10 µM.
Take `O=C(Cc1ccc(-n2cccc2)cc1)N(Cc1ccc2nccnc2c1)C1C=CS(=O)(=O)C1` (stereo not drawn) [I-251, N-(1,1-dioxo-2,3-dihydro-1lambda6-thiophen-3-yl)-2-[4-(1H-pyrrol-1-yl)phenyl]-N-[(quinoxalin-6-yl)methyl]acetamide]: the IC50 was 5 to 10 µM.
The result for `O=C(CC1COc2ccccc2C1)N(Cc1ccncc1)C1C=CS(=O)(=O)C1` (stereo not drawn) [I-613, 2-(3,4-dihydro-2H-1-benzopyran-3-yl)-N-(1,1-dioxo-2,3-dihydro-1lambda6-thiophen-3-yl)-N-[(pyridin-4-yl)methyl]acetamide] reads greater than 50 µM; that for `O=C(Cc1ccc(-n2cccc2)cc1)N(Cc1nc2c(s1)CCC2)C1C=CS(=O)(=O)C1` (stereo not drawn) [I-155, N-({4H,5H,6H-cyclopenta[d][1,3]thiazol-2-yl}methyl)-N-(1,1-dioxo-2,3-dihydro-1lambda6-thiophen-3-yl)-2-[4-(1H-pyrrol-1-yl)phenyl]acetamide], 0.5 to 5 µM; that for `COc1cc(CN(C(=O)Cc2ccc(-c3cscn3)cc2F)C2C=CS(=O)(=O)C2)ccn1` (stereo not drawn) [I-363, N-(1,1-dioxo-2,3-dihydro-1lambda6-thiophen-3-yl)-2-[2-fluoro-4-(1,3-thiazol-4-yl)phenyl]-N-[(2-methoxypyridin-4-yl)methyl]acetamide], 10 to 50 µM.
Regarding `COc1cc(CN(C(=O)C(C)c2ccc(S(F)(F)(F)(F)F)cc2)C2C=CS(=O)(=O)C2)ccn1` (stereo not drawn) [I-126, N-(1,1-dioxo-2,3-dihydro-1lambda6-thiophen-3-yl)-N-[(2-methoxypyridin-4-yl)methyl]-2-[4-(pentafluoro-lambda6-sulfanyl)phenyl]propanamide], the IC50 was 0.5 to 5 µM.
The result for `CN(CC(C(=O)N(Cc1ccncc1)C1C=CS(=O)(=O)C1)c1ccc(-c2ccc(F)cc2)cc1)S(C)(=O)=O` (stereo not drawn) [I-458, N-(1,1-dioxo-2,3-dihydro-1lambda6-thiophen-3-yl)-2-{4′-fluoro-[1,1′-biphenyl]-4-yl}-3-(N-methylmethanesulfonamido)-N-[(pyridin-4-yl)methyl]propanamide] reads greater than 50 µM.
The result for `Cc1cccn1-c1ccc(CC(=O)N(Cc2ccnc3c2CCC3(C)O)C2C=CS(=O)(=O)C2)c(F)c1` (stereo not drawn) [I-78, N-(1,1-dioxo-2,3-dihydro-1lambda6-thiophen-3-yl)-2-[2-fluoro-4-(2-methyl-1H-pyrrol-1-yl)phenyl]-N-({7-hydroxy-7-methyl-5H,6H,7H-cyclopenta[b]pyridin-4-yl}methyl)acetamide] reads less than 0.5 µM.
The result for `O=C(Cn1cc(Cl)cn1)N(Cc1ccncc1)C1C=CS(=O)(=O)C1` (stereo not drawn) [I-427, 2-(4-chloro-1H-pyrazol-1-yl)-N-(1,1-dioxo-2,3-dihydro-1lambda6-thiophen-3-yl)-N-[(pyridin-4-yl)methyl]acetamide] reads greater than 50 µM; that for `CN(C)S(=O)(=O)c1ccc(CC(=O)N(Cc2ccncc2)C2C=CS(=O)(=O)C2)cc1` (stereo not drawn) [I-388, 2-[4-(dimethylsulfamoyl)phenyl]-N-(1,1-dioxo-2,3-dihydro-1lambda6-thiophen-3-yl)-N-[(pyridin-4-yl)methyl]acetamide], greater than 50 µM; that for `CC(C)(O)c1cc(CN(C(=O)Cc2ncc(-c3cc(F)c(F)c(F)c3)s2)C2C=CS(=O)(=O)C2)ccn1` (single isomer, unassigned) [I-794], 0.5 to 5 µM.
Regarding `O=C(Cc1ccc(-c2cccs2)cc1)N(Cc1ccncc1)C1C=CS(=O)(=O)C1` (stereo not drawn) [I-338, N-(1,1-dioxo-2,3-dihydro-1lambda6-thiophen-3-yl)-N-[(pyridin-4-yl)methyl]-2-[4-(thiophen-2-yl)phenyl]acetamide], the IC50 was in the range of 10 to 50 µM.
The result for `COc1cc(CN(C(=O)C(c2ccc(-c3ccc(F)c(F)c3)cc2F)n2cc(C#N)cn2)[C@@H]2C=CS(=O)(=O)C2)ccn1` (single isomer, unassigned) [I-703, (2R*)-2-(4-cyano-1H-pyrazol-1-yl)-N-[(3R)-1,1-dioxo-2,3-dihydro-1lambda6-thiophen-3-yl]-N-[(2-methoxypyridin-4-yl)methyl]-2-{3,3′,4′-trifluoro-[1,1′-biphenyl]-4-yl}acetamide] reads less than 0.5 µM; that for `COc1cc(CN(C(=O)Cn2cc(-c3ccc(F)c(F)c3)c(C)n2)[C@@H]2C=CS(=O)(=O)C2)ccn1` [I-713, 2-[4-(3,4-difluorophenyl)-3-methyl-1H-pyrazol-1-yl]-N-[(3R)-1,1-dioxo-2,3-dihydro-1lambda6-thiophen-3-yl]-N-[(2-methoxypyridin-4-yl)methyl]acetamide], 10 to 50 µM; that for `COC(C(=O)N(Cc1ccnc(C(C)(C)O)c1)C1C=CS(=O)(=O)C1)c1ccc(S(F)(F)(F)(F)F)cc1` (stereo not drawn) [I-81, N-(1,1-dioxido-2,3-dihydrothiophen-3-yl)-N-((2-(2-hydroxypropan-2-yl)pyridin-4-yl)methyl)-2-methoxy-2-(4-(pentafluoro-λ^6-sulfaneyl)phenyl)acetamide], less than 0.5 µM.
The result for `O=C(Cc1ccc(-n2cccc2)cc1)N(Cc1ccnc(C(F)F)c1)C1C=CS(=O)(=O)C1` (stereo not drawn) [I-187, N-{[2-(difluoromethyl)pyridin-4-yl]methyl}-N-(1,1-dioxo-2,3-dihydro-1lambda6-thiophen-3-yl)-2-[4-(1H-pyrrol-1-yl)phenyl]acetamide] reads 0.5 to 5 µM.
For the molecule `CC(C)(O)c1cc(CN(C(=O)C(OCC2CC(F)(F)C2)c2ccc(-c3ccc(F)c(F)c3)cc2F)[C@@H]2C=CS(=O)(=O)C2)ccn1` (stereo in doubt) [I-792, rel-2-[(3,3-difluorocyclobutyl)methoxy]-N-[(3R)-1,1-dioxo-2,3-dihydro-1lambda6-thiophen-3-yl]-N-{[2-(2-hydroxypropan-2-yl)pyridin-4-yl]methyl}-2-{3,3′,4′-trifluoro-[1,1′-biphenyl]-4-yl}acetamide], the IC50 is 0.5 to 5 µM.
The result for `O=C(Cc1ccc(-c2ccc(F)cc2)cc1)N(Cc1ccncc1)C1C=CS(=O)(=O)C1` (stereo not drawn) [I-200, N-(1,1-dioxo-2,3-dihydro-1lambda6-thiophen-3-yl)-2-{4′-fluoro-[1,1′-biphenyl]-4-yl}-N-[(pyridin-4-yl)methyl]acetamide] reads 0.5 to 5 µM.
The result for `CC(C)(O)c1cc(CN(C(=O)Cc2ccc(S(F)(F)(F)(F)F)cc2)C2C=CS(=O)(=O)C2)ccn1` (stereo not drawn) [I-39, N-(1,1-dioxo-2,3-dihydro-1lambda6-thiophen-3-yl)-N-{[2-(2-hydroxypropan-2-yl)pyridin-4-yl]methyl}-2-[4-(pentafluoro-lambda6-sulfanyl)phenyl]acetamide] reads less than 0.5 µM; that for `O=C(CCc1c[nH]c2cc(Cl)ccc12)N(Cc1ccncc1)C1C=CS(=O)(=O)C1` (stereo not drawn) [I-306, 3-(6-chloro-1H-indol-3-yl)-N-(1,1-dioxo-2,3-dihydro-1lambda6-thiophen-3-yl)-N-[(pyridin-4-yl)methyl]propanamide], 10 to 50 µM; that for `COc1cc(C(C)N(C(=O)Cn2cc(-c3cc(F)c(F)c(F)c3)cn2)C2C=CS(=O)(=O)C2)ccn1` (single isomer, unassigned) [I-831, N-[(3R**)-1,1-dioxo-2,3-dihydro-1lambda6-thiophen-3-yl]-N-[(1R*)-1-(2-methoxypyridin-4-yl)ethyl]-2-[4-(3,4,5-trifluorophenyl)-1H-pyrazol-1-yl]acetamide], 0.5 to 5 µM.
